The term IC50 denotes the concentration that gives 50% inhibition.

Structures are written as SMILES.

For the assay, the target named is T1, Y2 receptors (Homo sapiens, UniProt P49146).
T1 construct: endogenous in cells; host or cells: KAN-Ts cells (membranes)
T1 sequence (P49146 1-381): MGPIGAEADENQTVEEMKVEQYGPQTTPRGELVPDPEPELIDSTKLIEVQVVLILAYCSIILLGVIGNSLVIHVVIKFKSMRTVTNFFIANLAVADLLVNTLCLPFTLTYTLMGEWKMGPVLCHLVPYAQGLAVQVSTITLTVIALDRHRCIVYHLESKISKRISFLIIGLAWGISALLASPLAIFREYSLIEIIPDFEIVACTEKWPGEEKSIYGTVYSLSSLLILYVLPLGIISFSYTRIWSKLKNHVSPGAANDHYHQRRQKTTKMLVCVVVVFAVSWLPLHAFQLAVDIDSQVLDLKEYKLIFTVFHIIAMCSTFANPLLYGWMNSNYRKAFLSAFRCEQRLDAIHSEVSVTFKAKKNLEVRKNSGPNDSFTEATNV
Description: Radioligand binding assay ([125I]PYY, KAN-Ts cell membranes). To be noted: Table 2, [125I]PYY 80 pM, average of results, read-out: IC50. The method in brief:
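Membranes from KAN-Ts cells endogenously expressing Y2 incubated 1 h at rt with 80 pM [^125I]PYY ± test compound in HEPES buffer with NaCl, Ca^2+ and Mg^2+. Bound radioactivity collected by filtration; specific binding defined with […]. IC50 from sigmoidal fit, averaged over 3-8 duplicate experiments.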
For the compound `CCNC(=O)C(c1ccccc1)N1CCN(c2c(F)cc(NC(=O)C3CCCC3)cc2F)CC1` (stereo not shown) [Example 239, Cyclopentanecarboxylic acid {4-[4-(ethylcarbamoyl-phenyl-methyl)-piperazin-1-yl]-3,5-difluoro-phenyl}-amide], the half-maximal inhibitory concentration (IC50) was determined as 2.5 µM.

For `C#Cc1cc(NC(=O)C(CC)CC)ccc1N1CCN(C(C(=O)N(CC)CC)c2ccccc2)CC1` (stereo not shown) [Example 240, N-{4-[4-(Diethylcarbamoyl-phenyl-methyl)-piperazin-1-yl]-3-ethynyl-phenyl}-2-ethyl-butyramide], the half-maximal inhibitory concentration (IC50) came out at 0.018 µM.

`CCN(CC)C(=O)C(c1ccccc1)N1CCN(c2ccc(NC(=O)CC3CC3)cc2F)CC1` (stereo not shown) [Example 241, 2-{4-[4-(2-Cyclopropyl-acetylamino)-2-fluoro-phenyl]-piperazin-1-yl}-N,N-diethyl-2-phenyl-acetamide]: the IC50 stood at 0.3 µM.

Take `CCN(CC)C(=O)C(c1ccccc1)N1CCN(c2ccc(NC(=O)CC3CCCC3)cc2F)CC1` (stereo not shown) [Example 242, 2-{4-[4-(2-Cyclopentyl-acetylamino)-2-fluoro-phenyl]-piperazin-1-yl}-N,N-diethyl-2-phenyl-acetamide]: the concentration for half-maximal inhibition (IC50) amounted to 3 µM.

As for `CCN(CC)C(=O)C(c1ccccc1)N1CCN(c2ccc(NC(=O)C3CC3C)cc2F)CC1` (stereo not shown) [Example 243, 2-Methyl-cyclopropanecarboxylic acid {4-[4-(diethylcarbamoyl-phenyl-methyl)-piperazin-1-yl]-3-fluoro-phenyl}-amide], the half-maximal inhibitory concentration (IC50) amounted to 0.12 µM.

For the compound `CCN(CC)C(=O)C(c1ccccc1)N1CCN(c2ccc(NC(=O)C3CCCC3)cc2F)CC1` (stereo not shown) [Example 244, Cyclopentanecarboxylic acid {4-[4-(diethylcarbamoyl-phenyl-methyl)-piperazin-1-yl]-3-fluoro-phenyl}-amide], the IC50 was 0.08 µM.

With `CCC(CC)NC(=O)c1ccc(N2CCN(C(C(=O)N(CC)CC)c3ccccc3)CC2)c(F)c1` (stereo not shown) [Example 245, 4-[4-(Diethylcarbamoyl-phenyl-methyl)-piperazin-1-yl]-N-(1-ethyl-propyl)-3-fluoro-benzamide], the IC50 was 3 µM.

Regarding `CCN(CC)C(=O)C(c1ccccc1)N1CCN(c2ccc(CNC(=O)C(C)CC(F)(F)F)cc2F)CC1` (stereo not shown) [Example 246, N-{4-[4-(Diethylcarbamoyl-phenyl-methyl)-piperazin-1-yl]-3-fluoro-benzyl}-4,4,4-trifluoro-2-methyl-butyramide], the half-inhibitory concentration (IC50) turned out to be 2.2 µM.

On to `CCN(CC)C(=O)C(c1ccccc1)N1CCN(c2ccc(CNC(=O)[C@H]3CCOC3)cc2F)CC1` (stereo partly drawn) [Example 247, (S)-Tetrahydro-furan-3-carboxylic acid 4-[4-(diethylcarbamoyl-phenyl-methyl)-piperazin-1-yl]-3-fluoro-benzylamide], for which the concentration for half-maximal inhibition (IC50) was no less than 10 µM.

Turning to `CCC(CC)C(=O)Nc1ccc(N2CCC([C@@H](C(=O)N(CC)CC)c3ccccc3)CC2)c(F)c1` [Example 248, (R)-(−)-N-{4-[4-(Diethylcarbamoyl-phenyl-methyl)-piperidin-1-yl]-3-fluoro-phenyl}-2-ethyl-butyramide], the IC50 worked out at 0.013 µM.

For the compound `CCC(CC)C(=O)Nc1ccc(N2CCC([C@H](C(=O)N(CC)CC)c3ccccc3)CC2)c(F)c1` [Example 249, (S)—(+)-N-{4-[4-(Diethylcarbamoyl-phenyl-methyl)-piperidin-1-yl]-3-fluoro-phenyl}-2-ethyl-butyramide], the half-maximal inhibitory concentration (IC50) amounted to 0.1 µM.

As to `CCC(CC)C(=O)Nc1ccc(N2CCN(C(C(=O)N(CC)CC)c3ccc(OC)cc3)CC2)c(C#N)c1` (stereo not shown) [Example 250, N-(3-Cyano-4-{4-[diethylcarbamoyl-(4-methoxy-phenyl)-methyl]-piperazin-1-yl}-phenyl)-2-ethyl-butyramide], the IC50 was 0.009 µM.

With `CCC(CC)C(=O)Nc1ccc(N2CCN(C(C(=O)N(CC)CC)c3ccc(OC)cc3)CC2)c(F)c1` (stereo not shown) [Example 251, N-(4-{4-[Diethylcarbamoyl-(4-methoxy-phenyl)-methyl]-piperazin-1-yl}-3-fluoro-phenyl)-2-ethyl-butyramide], the half-inhibitory concentration (IC50) came out at 0.018 µM.

`CCC(CC)C(=O)Nc1ccc(N2CCN(C(C(=O)N(CC)CC)c3ccc(O)cc3)CC2)c(F)c1` (stereo not shown) [Example 252, N-(4-{4-[Diethylcarbamoyl-(4-hydroxy-phenyl)-methyl]-piperazin-1-yl}-3-fluoro-phenyl)-2-ethyl-butyramide]: the IC50 was 0.104 µM.

Take `CCC(CC)C(=O)Nc1ccc(N2CCN(C(C(=O)N(CC)CC)c3ccc(Cl)cc3)CC2)c(F)c1` (stereo not shown) [Example 253, N-(4-{4-[(4-Chloro-phenyl)-diethylcarbamoyl-methyl]-piperazin-1-yl}-3-fluoro-phenyl)-2-ethyl-butyramide]: the 50% inhibitory concentration (IC50) was 0.102 µM.

Consider `CCC(CC)C(=O)Nc1ccc(N2CCN(C(C(=O)N(CC)CC)c3ccc(C#N)cc3)CC2)c(F)c1` (stereo not shown) [Example 254, N-(4-{4-[(4-Cyano-phenyl)-diethylcarbamoyl-methyl]-piperazin-1-yl}-3-fluoro-phenyl)-2-ethyl-butyramide], for which the IC50 turned out to be 0.044 µM.

As to `CCOc1ccc(C(C(=O)N(CC)CC)N2CCN(c3ccc(NC(=O)C(CC)CC)cc3F)CC2)cc1` (stereo not shown) [Example 255, N-(4-{4-[Diethylcarbamoyl-(4-ethoxy-phenyl)-methyl]-piperazin-1-yl}-3-fluoro-phenyl)-2-ethyl-butyramide], the IC50 turned out to be 0.044 µM.

On to `CCC(CC)C(=O)Nc1ccc(N2CCN(C(C(=O)N(CC)CC)c3ccc(OC(F)(F)F)cc3)CC2)c(F)c1` (stereo not shown) [Example 256, N-(4-{4-[Diethylcarbamoyl-(4-trifluoromethoxy-phenyl)-methyl]-piperazin-1-yl}-3-fluoro-phenyl)-2-ethyl-butyramide], for which the IC50 was determined as 0.026 µM.

Turning to `CCC(CC)C(=O)Nc1ccc(N2CCN(C(C(=O)N(CC)CC)c3ccccc3)C(C)C2)c(F)c1` (stereo not shown) [Example 257, N-{4-[4-(Diethylcarbamoyl-phenyl-methyl)-3-methyl-piperazin-1-yl]-3-fluoro-phenyl}-2-ethyl-butyramide], the IC50 is 0.068 µM.

`CCC(CC)C(=O)Nc1ccc(N2CCN(C(C(=O)N(CC)CC)c3ccccc3)CC2C)c(F)c1` (stereo not shown) [Example 258]: the IC50 worked out at 0.145 µM.

On to `CCC(CC)C(=O)Nc1ccc(N2CCN(C(C(=O)c3ccccc3)c3ccccc3)CC2)c(F)c1` (stereo not shown) [Example 259, 2-Ethyl-N-{3-fluoro-4-[4-(2-oxo-1,2-diphenyl-ethyl)-piperazin-1-yl]-phenyl}-butyramide], for which the 50% inhibitory concentration (IC50) is 0.07 µM.

In the case of `CCC(CC)C(=O)Nc1ccc(N2CCN(C(C(=O)N(CC)CC)c3ccccn3)CC2)c(F)c1` (stereo not shown) [Example 260, N-{4-[4-(Diethylcarbamoyl-pyridin-2-yl-methyl)-piperazin-1-yl]-3-fluoro-phenyl}-2-ethyl-butyramide], the IC50 is 0.1 µM.

`CCC(CC)C(=O)Nc1ccc(N2CCN(C(C(=O)N3CCC(F)(F)C3)c3ccccn3)CC2)c(F)c1` (stereo not shown) [Example 261, N-(4-{4-[2-(3,3-Difluoro-pyrrolidin-1-yl)-2-oxo-1-pyridin-2-yl-ethyl]-piperazin-1-yl}-3-fluoro-phenyl)-2-ethyl-butyramide]: the half-maximal inhibitory concentration (IC50) was 0.13 µM.

Take `CCC(CC)C(=O)Nc1ccc(N2CCN(C(C(=O)OC)c3ccc(O)cc3)CC2)c(F)c1` (stereo not shown) [Example 262, {4-[4-(2-Ethyl-butyrylamino)-2-fluoro-phenyl]-piperazin-1-yl}-(4-hydroxy-phenyl)-acetic acid methyl ester]: the 50% inhibitory concentration (IC50) is 0.162 µM.

With `CCC(CC)C(=O)Nc1ccc(N2CCN(C(C(=O)OC)c3ccc(OC)cc3)CC2)c(F)c1` (stereo not shown) [Example 263, {4-[4-(2-Ethyl-butyrylamino)-2-fluoro-phenyl]-piperazin-1-yl}-(4-methoxy-phenyl)-acetic acid methyl ester], the half-maximal inhibitory concentration (IC50) worked out at 0.25 µM.

`CCC(CC)C(=O)Nc1ccc(N2CCN(C(C(=O)OC)c3ccccn3)CC2)c(F)c1` (stereo not shown) [Example 264, {4-[4-(2-Ethyl-butyrylamino)-2-fluoro-phenyl]-piperazin-1-yl}-pyridin-2-yl-acetic acid methyl ester]: the half-inhibitory concentration (IC50) was 0.55 µM.

In the case of `CCC(CC)C(=O)Nc1ccc(N2CCN(C(CO)c3ccccc3)CC2)c(F)c1` (stereo not shown) [Example 266, 2-Ethyl-N-{3-fluoro-4-[4-(2-hydroxy-1-phenyl-ethyl)-piperazin-1-yl]-phenyl}-butyramide], the half-maximal inhibitory concentration (IC50) was 0.785 µM.

Turning to `CCC(CC)C(=O)Nc1ccc(N2CCN(C(C)c3ccccc3)CC2)c(F)c1` (stereo not shown) [Example 267, 2-Ethyl-N-{3-fluoro-4-[4-(1-phenyl-ethyl)-piperazin-1-yl]-phenyl}-butyramide], the IC50 was found to be 1.27 µM.

For `CCC(CC)C(=O)Nc1ccc(N2CCN(Cc3ccccc3)CC2)c(F)c1` [Example 268, N-[4-(4-Benzyl-piperazin-1-yl)-3-fluoro-phenyl]-2-ethyl-butyramide], the IC50 is 1.4 µM.

`CCC(CC)C(=O)Nc1ccc(N2CCN(Cc3ccc4c(c3)OCO4)C(C(=O)OC)C2)c(F)c1` (stereo not shown) [Example 270, 1-Benzo[1,3]dioxol-5-ylmethyl-4-[4-(2-ethyl-butyrylamino)-2-fluoro-phenyl]-piperazine-2-carboxylic acid methyl ester]: the 50% inhibitory concentration (IC50) was determined as 3 µM.

Regarding `CCC(CC)C(=O)Nc1ccc(N2CCN(Cc3ccccc3)C(C(=O)OC)C2)c(F)c1` (stereo not shown) [Example 271, 1-Benzyl-4-[4-(2-ethyl-butyrylamino)-2-fluoro-phenyl]-piperazine-2-carboxylic acid methyl ester], the IC50 amounted to 4 µM.

Values taken from patent US8183239B2, “Substituted piperazines and piperidines as modulators of the neuropeptide Y2 receptor” (Janssen Pharmaceutica NV, priority 2005, dated 2012).
